Source: paper PMC9817970 (Cancers, 2022)

Columns and labels:
Assay in all cases: Kinase panel profiling
Type in all cases: biochemical
Settings in all cases: 10 μM ATP
ACK1 = target: T1, ACK1 (Homo sapiens, UniProt Q07912)
T1 construct: purchased Reaction Biology Corp
Protocol: (§1) Kinase panel profiling was conducted by Reaction Biology Corp. (San Diego, CA, USA). A single dose (1.0 μM) of 6r was tested against 371 recombinant human kinases in the presence of 10 μM ATP.

CAMK4 = target: T2, CAMK4 (Homo sapiens, UniProt Q16566)
T2 construct: purchased Reaction Biology Corp
Protocol: as §1

CDK4/cyclin D1 = target: T3, CDK4/cyclin D1 (Homo sapiens, UniProt P11802)
T3 construct: purchased Reaction Biology Corp
Protocol: as §1

CDK8/cyclin C = target: T4, CDK8/cyclin C (Homo sapiens, UniProt P49336)
T4 construct: purchased Reaction Biology Corp
Protocol: as §1

CDK9/cyclin T2 = target: T5, CDK9/cyclin T2 (Homo sapiens, UniProt P50750)
T5 construct: purchased Reaction Biology Corp
Protocol: as §1

CK1a1L = target: T6, CK1a1L (Homo sapiens, UniProt Q8N752)
T6 construct: purchased Reaction Biology Corp
Protocol: as §1

DMPK2 = target: T7, DMPK2 (Homo sapiens, UniProt Q6DT37)
T7 construct: purchased Reaction Biology Corp
Protocol: as §1

ERBB4/HER4 = target: T8, ERBB4/HER4 (Homo sapiens, UniProt Q15303)
T8 construct: purchased Reaction Biology Corp
Protocol: as §1

FGFR3 = target: T9, FGFR3 (Homo sapiens, UniProt P22607)
T9 construct: purchased Reaction Biology Corp
Protocol: as §1

FGR = target: T10, FGR (Homo sapiens, UniProt P09769)
T10 construct: purchased Reaction Biology Corp
T10 sequence (P09769 whole entry): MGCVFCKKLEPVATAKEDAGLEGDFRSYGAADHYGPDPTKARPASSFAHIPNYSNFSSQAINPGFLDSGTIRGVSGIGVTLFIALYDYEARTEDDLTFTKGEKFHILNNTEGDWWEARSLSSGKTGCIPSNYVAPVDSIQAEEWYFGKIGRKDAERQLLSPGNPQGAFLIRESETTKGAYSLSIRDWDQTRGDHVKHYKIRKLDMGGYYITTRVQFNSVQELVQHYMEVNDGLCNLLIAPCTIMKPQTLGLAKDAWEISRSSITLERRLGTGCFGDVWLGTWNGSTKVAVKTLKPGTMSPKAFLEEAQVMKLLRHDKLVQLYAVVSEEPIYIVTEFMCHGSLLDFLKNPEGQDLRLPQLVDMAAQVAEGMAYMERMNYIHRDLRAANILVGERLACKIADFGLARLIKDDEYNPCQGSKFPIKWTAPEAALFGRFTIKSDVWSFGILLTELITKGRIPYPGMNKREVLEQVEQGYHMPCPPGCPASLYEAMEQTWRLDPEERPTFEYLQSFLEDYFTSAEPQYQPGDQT
Protocol: as §1

FLT3 = target: T11, FLT3 (Homo sapiens, UniProt P36888)
T11 construct: purchased Reaction Biology Corp
Protocol: as §1

FLT4/VEGFR3 = target: T12, FLT4/VEGFR3 (Homo sapiens, UniProt P35916)
T12 construct: purchased Reaction Biology Corp
Protocol: as §1

GLK/MAP4K3 = target: T13, GLK/MAP4K3 (Homo sapiens, UniProt Q8IVH8)
T13 construct: purchased Reaction Biology Corp
Protocol: as §1

IKKa/CHUK = target: T14, IKKa/CHUK (Homo sapiens, UniProt O15111)
T14 construct: purchased Reaction Biology Corp
Protocol: as §1

LATS1 = target: T15, LATS1 (Homo sapiens, UniProt O95835)
T15 construct: purchased Reaction Biology Corp
Protocol: as §1

LATS2 = target: T16, LATS2 (Homo sapiens, UniProt Q9NRM7)
T16 construct: purchased Reaction Biology Corp
Protocol: as §1

MAPKAPK2 = target: T17, MAPKAPK2 (Homo sapiens, UniProt P49137)
T17 construct: purchased Reaction Biology Corp
Protocol: as §1

MAPKAPK5/PRAK = target: T18, MAPKAPK5/PRAK (Homo sapiens, UniProt Q8IW41)
T18 construct: purchased Reaction Biology Corp
Protocol: as §1

MEKK1 = target: T19, MEKK1 (Homo sapiens, UniProt Q13233)
T19 construct: purchased Reaction Biology Corp
Protocol: as §1

MINK/MINK1 = target: T20, MINK/MINK1 (Homo sapiens, UniProt Q8N4C8)
T20 construct: purchased Reaction Biology Corp
Protocol: as §1

P38g = target: T21, P38g (Homo sapiens, UniProt P53778)
T21 construct: purchased Reaction Biology Corp
T21 sequence (P53778 whole entry): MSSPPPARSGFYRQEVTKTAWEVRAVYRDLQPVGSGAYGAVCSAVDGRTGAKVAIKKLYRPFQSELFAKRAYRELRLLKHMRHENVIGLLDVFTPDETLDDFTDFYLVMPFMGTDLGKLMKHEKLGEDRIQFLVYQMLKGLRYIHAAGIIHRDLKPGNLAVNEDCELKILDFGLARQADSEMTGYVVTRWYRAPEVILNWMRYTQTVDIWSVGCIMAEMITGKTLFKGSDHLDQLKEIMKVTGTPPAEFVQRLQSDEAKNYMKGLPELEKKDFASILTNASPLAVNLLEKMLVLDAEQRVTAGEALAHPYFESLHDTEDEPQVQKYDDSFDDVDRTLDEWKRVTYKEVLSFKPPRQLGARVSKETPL
Protocol: as §1

PDK1/PDPK1 = target: T22, PDK1/PDPK1 (Homo sapiens, UniProt O15530)
T22 construct: purchased Reaction Biology Corp
Protocol: as §1

PIM1 = target: T23, PIM1 (Homo sapiens, UniProt P11309)
T23 construct: purchased Reaction Biology Corp
Protocol: as §1

PKCepsilon = target: T24, PKCepsilon (Homo sapiens, UniProt Q02156)
T24 construct: purchased Reaction Biology Corp
T24 sequence (Q02156 whole entry): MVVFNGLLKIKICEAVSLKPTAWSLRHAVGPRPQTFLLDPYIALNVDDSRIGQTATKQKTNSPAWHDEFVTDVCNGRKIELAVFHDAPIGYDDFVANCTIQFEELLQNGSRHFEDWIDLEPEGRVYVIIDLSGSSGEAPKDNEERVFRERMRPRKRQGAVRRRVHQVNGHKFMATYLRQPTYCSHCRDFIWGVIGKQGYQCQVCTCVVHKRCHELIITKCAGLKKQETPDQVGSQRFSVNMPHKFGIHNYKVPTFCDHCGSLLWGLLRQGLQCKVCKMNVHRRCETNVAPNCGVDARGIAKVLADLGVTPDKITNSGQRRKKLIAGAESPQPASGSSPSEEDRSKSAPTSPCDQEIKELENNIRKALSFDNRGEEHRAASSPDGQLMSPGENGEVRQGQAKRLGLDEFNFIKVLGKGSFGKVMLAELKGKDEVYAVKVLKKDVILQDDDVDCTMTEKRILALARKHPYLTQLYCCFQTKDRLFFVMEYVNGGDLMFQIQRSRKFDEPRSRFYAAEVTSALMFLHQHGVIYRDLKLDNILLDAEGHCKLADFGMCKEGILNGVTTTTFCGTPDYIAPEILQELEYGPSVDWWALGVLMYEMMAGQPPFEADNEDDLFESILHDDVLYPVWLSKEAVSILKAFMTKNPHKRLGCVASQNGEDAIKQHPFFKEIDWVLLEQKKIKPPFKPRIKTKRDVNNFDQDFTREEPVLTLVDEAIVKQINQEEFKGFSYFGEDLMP
Protocol: as §1

PKD2/PRKD2 = target: T25, PKD2/PRKD2 (Homo sapiens, UniProt Q9BZL6)
T25 construct: purchased Reaction Biology Corp
Protocol: as §1

PKG2/PRKG2 = target: T26, PKG2/PRKG2 (Homo sapiens, UniProt Q13237)
T26 construct: purchased Reaction Biology Corp
Protocol: as §1

PLK3 = target: T27, PLK3 (Homo sapiens, UniProt Q9H4B4)
T27 construct: purchased Reaction Biology Corp
Protocol: as §1

PRKX = target: T28, PRKX (Homo sapiens, UniProt P51817)
T28 construct: purchased Reaction Biology Corp
Protocol: as §1

RET = target: T29, RET (Homo sapiens, UniProt P07949)
T29 construct: purchased Reaction Biology Corp
Protocol: as §1

ROCK1 = target: T30, ROCK1 (Homo sapiens, UniProt Q13464)
T30 construct: purchased Reaction Biology Corp
Protocol: as §1

RON/MST1R = target: T31, RON/MST1R (Homo sapiens, UniProt Q04912)
T31 construct: purchased Reaction Biology Corp
Protocol: as §1

RSK2 = target: T32, RSK2 (Homo sapiens, UniProt P51812)
T32 construct: purchased Reaction Biology Corp
Protocol: as §1

STK21/CIT = target: T33, STK21/CIT (Homo sapiens, UniProt O14578)
T33 construct: purchased Reaction Biology Corp
Protocol: as §1

TAK1 = target: T34, TAK1 (Homo sapiens, UniProt O43318)
T34 construct: purchased Reaction Biology Corp
T34 sequence (O43318 1-303 limits assumed): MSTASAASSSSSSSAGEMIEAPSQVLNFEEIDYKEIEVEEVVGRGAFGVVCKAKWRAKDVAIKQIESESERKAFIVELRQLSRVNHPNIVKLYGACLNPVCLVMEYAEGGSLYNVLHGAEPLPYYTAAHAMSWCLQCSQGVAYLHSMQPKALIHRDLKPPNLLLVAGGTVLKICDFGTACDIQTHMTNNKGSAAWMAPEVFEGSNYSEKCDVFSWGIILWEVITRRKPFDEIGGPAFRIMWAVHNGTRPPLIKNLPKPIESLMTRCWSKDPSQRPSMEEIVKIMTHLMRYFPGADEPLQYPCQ
Protocol: as §1

TLK1 = target: T35, TLK1 (Homo sapiens, UniProt Q9UKI8)
T35 construct: purchased Reaction Biology Corp
T35 sequence (Q9UKI8 whole entry): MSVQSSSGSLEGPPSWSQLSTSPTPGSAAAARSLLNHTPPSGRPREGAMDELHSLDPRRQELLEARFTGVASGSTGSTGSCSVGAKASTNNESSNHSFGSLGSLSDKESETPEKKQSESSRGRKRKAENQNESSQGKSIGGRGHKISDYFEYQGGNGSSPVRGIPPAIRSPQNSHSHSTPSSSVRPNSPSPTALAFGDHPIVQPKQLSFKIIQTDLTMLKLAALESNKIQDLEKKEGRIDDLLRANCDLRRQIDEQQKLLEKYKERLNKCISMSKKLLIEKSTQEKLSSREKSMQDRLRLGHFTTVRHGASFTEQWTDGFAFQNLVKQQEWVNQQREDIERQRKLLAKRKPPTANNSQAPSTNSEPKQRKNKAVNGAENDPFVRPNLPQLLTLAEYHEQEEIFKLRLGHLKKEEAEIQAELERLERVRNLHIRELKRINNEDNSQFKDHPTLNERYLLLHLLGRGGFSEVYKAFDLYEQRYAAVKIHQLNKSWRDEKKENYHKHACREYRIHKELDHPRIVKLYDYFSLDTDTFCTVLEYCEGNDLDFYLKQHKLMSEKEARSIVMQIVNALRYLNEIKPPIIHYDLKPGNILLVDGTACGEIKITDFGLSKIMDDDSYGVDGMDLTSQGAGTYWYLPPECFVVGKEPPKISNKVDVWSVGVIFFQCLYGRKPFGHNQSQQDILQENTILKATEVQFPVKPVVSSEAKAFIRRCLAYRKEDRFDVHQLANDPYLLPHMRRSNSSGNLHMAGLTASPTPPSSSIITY
Protocol: as §1

TXK = target: T36, TXK (Homo sapiens, UniProt P42681)
T36 construct: purchased Reaction Biology Corp
Protocol: as §1

WNK1 = target: T37, WNK1 (Homo sapiens, UniProt Q9H4A3)
T37 construct: purchased Reaction Biology Corp
T37 sequence (Q9H4A3 whole entry): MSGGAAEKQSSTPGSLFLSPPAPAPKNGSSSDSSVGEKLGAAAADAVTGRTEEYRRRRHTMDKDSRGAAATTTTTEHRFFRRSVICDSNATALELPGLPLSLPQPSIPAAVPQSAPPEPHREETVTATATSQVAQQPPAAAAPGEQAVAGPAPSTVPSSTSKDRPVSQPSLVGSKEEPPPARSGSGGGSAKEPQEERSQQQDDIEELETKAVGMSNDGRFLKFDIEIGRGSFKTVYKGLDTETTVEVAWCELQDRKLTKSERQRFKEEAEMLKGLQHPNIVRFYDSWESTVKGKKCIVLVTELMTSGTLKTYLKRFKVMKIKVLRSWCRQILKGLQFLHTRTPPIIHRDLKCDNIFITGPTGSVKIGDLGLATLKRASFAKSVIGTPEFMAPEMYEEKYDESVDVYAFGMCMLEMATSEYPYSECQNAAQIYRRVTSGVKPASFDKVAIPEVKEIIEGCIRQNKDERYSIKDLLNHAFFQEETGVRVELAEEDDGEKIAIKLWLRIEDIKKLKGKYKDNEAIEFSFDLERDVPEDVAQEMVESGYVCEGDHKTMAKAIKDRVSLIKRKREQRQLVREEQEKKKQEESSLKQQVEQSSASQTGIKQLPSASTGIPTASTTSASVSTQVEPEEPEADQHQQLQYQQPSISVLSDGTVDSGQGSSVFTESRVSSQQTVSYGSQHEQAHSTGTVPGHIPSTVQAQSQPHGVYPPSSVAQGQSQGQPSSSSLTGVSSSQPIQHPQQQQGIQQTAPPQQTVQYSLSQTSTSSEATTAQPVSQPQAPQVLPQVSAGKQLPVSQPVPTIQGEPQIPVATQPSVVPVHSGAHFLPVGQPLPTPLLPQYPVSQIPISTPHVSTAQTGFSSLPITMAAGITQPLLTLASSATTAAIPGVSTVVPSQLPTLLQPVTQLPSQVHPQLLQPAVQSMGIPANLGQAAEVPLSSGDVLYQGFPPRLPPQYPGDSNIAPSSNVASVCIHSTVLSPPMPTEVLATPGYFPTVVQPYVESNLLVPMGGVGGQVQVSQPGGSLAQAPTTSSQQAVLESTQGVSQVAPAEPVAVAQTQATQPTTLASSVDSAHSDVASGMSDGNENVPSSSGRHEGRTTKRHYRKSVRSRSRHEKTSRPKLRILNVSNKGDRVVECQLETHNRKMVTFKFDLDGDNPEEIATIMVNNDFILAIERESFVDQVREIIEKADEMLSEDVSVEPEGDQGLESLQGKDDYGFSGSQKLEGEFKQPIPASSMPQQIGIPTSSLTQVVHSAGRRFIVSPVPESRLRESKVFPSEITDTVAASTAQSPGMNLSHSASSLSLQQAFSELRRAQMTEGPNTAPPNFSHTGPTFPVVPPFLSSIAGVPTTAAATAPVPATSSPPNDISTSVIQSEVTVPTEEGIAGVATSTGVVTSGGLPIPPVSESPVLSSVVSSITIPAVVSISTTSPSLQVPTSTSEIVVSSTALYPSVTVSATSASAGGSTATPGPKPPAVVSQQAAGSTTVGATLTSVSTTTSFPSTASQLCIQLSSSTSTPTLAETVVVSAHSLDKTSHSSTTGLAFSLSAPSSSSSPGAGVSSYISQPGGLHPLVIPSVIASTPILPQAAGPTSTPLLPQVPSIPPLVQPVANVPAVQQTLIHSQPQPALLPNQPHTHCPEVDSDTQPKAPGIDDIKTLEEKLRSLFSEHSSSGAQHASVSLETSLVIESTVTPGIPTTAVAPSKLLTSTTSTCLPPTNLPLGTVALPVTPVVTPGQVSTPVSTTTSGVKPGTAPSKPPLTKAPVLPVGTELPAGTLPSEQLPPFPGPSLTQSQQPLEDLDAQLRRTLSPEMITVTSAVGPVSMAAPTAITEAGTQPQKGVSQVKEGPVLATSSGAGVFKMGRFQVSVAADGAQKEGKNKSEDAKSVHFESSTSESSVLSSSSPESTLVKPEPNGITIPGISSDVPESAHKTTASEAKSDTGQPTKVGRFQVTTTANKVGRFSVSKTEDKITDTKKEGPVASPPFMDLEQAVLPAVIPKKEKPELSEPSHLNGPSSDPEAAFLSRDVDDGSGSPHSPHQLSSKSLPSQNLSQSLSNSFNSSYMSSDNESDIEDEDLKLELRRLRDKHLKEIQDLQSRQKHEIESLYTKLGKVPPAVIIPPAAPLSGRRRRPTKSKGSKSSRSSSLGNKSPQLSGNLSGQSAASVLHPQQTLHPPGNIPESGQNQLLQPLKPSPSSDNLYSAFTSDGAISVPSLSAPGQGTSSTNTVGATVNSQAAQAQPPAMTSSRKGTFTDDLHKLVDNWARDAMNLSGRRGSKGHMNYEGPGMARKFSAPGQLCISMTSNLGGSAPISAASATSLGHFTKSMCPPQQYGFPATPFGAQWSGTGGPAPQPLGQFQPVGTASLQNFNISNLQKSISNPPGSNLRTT
Protocol: as §1

YSK4/MAP3K19 = target: T38, YSK4/MAP3K19 (Homo sapiens, UniProt Q56UN5)
T38 construct: purchased Reaction Biology Corp
Protocol: as §1

ZAK/MLTK = target: T39, ZAK/MLTK (Homo sapiens, UniProt Q9NYL2)
T39 construct: purchased Reaction Biology Corp
Protocol: as §1

ZAP70 = target: T40, ZAP70 (Homo sapiens, UniProt P43403)
T40 construct: purchased Reaction Biology Corp
Protocol: as §1

c-MER = target: T41, c-MER (Homo sapiens, UniProt Q12866)
T41 construct: purchased Reaction Biology Corp
Protocol: as §1

p70S6K/RPS6KB1 = target: T42, p70S6K/RPS6KB1 (Homo sapiens, UniProt P23443)
T42 construct: purchased Reaction Biology Corp
Protocol: as §1

## Cc1ccc(NC(=O)c2ccc(CN3CCN(C)CC3)c(C(F)(F)F)c2)cc1-c1cnc2sc(N)nc2c1 [6r]
ACK1
  inhibition at 1 µM: 39.9%
CAMK4
  inhibition at 1 µM: 3.2%
CDK4/cyclin D1
  inhibition at 1 µM: 4.7%
CDK8/cyclin C
  inhibition at 1 µM: 0%
CDK9/cyclin T2
  inhibition at 1 µM: 0%
CK1a1L
  inhibition at 1 µM: 8.5%
DMPK2
  inhibition at 1 µM: 8%
ERBB4/HER4
  inhibition at 1 µM: 73.9%
FGFR3
  inhibition at 1 µM: 0%
FGR
  inhibition at 1 µM: 87.7%
FLT3
  inhibition at 1 µM: 0%
FLT4/VEGFR3
  inhibition at 1 µM: 77.8%
GLK/MAP4K3
  inhibition at 1 µM: 15%
IKKa/CHUK
  inhibition at 1 µM: 4.8%
LATS1
  inhibition at 1 µM: 1.5%
LATS2
  inhibition at 1 µM: 2.1%
MAPKAPK2
  inhibition at 1 µM: 12.5%
MAPKAPK5/PRAK
  inhibition at 1 µM: 0%
MEKK1
  inhibition at 1 µM: 0%
MINK/MINK1
  inhibition at 1 µM: 0%
P38g
  inhibition at 1 µM: 0%
PDK1/PDPK1
  inhibition at 1 µM: 7.2%
PIM1
  inhibition at 1 µM: 13.6%
PKCepsilon
  inhibition at 1 µM: 0%
PKD2/PRKD2
  inhibition at 1 µM: 28.6%
PKG2/PRKG2
  inhibition at 1 µM: 9.1%
PLK3
  inhibition at 1 µM: 4.8%
PRKX
  inhibition at 1 µM: 12.8%
RET
  inhibition at 1 µM: 99.4%
ROCK1
  inhibition at 1 µM: 0.2%
RON/MST1R
  inhibition at 1 µM: 4.5%
RSK2
  inhibition at 1 µM: 32.4%
STK21/CIT
  inhibition at 1 µM: 5.6%
TAK1
  inhibition at 1 µM: 12.8%
TLK1
  inhibition at 1 µM: 0%
TXK
  inhibition at 1 µM: 16.8%
WNK1
  inhibition at 1 µM: 6.9%
YSK4/MAP3K19
  inhibition at 1 µM: 0%
ZAK/MLTK
  inhibition at 1 µM: 50%
ZAP70
  inhibition at 1 µM: 8.7%
c-MER
  inhibition at 1 µM: 6.1%
p70S6K/RPS6KB1
  inhibition at 1 µM: 8.4%
